According to patent publication US20250041280A1, “USE OF HETEROCYCLIC COMPOUNDS IN ALLEVIATING ADVERSE REACTIONS CAUSED BY CHEMOTHERAPEUTIC DRUGS” (TSINGHUA UNIVERSITY, priority 2021, published 2025):

Experiments:
[1] = system: small intestinal organoids in mice; assay: Protection of ISX on injury of mouse small intestinal organoids caused by etoposide, bright field and live cells/dead cells double staining; format: cell-based; conditions: then 4 days of culture
Excerpt: (§1) 1. Isolation of Crypts and Culture of Organoids

[2] = system: small intestinal organoids in mice; assay: Protection of ISX on injury of mouse small intestinal organoids caused by 5-FU, bright field and live cells/dead cells double staining; format: cell-based; conditions: then 4 days of culture
Excerpt: as §1

[3] = system: small intestinal organoids in mice; assay: Protection of ISX on injury of mouse small intestinal organoids caused by etoposide, immunofluorescence staining; format: cell-based; conditions: etoposide 50 uM + ISX 25 uM, 4 hours of treatment; FIG. 4
Excerpt: as §1
(§2) 3. Immunofluorescence of Organoids

[4] = system: small intestinal organoids in mice; assay: Protection of ISX on injury of mouse small intestinal organoids caused by etoposide, Western blotting; format: cell-based; conditions: etoposide 50 uM + ISX 25 uM, 4 hours of treatment; FIG. 5
Description: as §1
5. Western Blotting Assay
After 4 hours of treatment, 4 groups of samples were collected for Western blotting assay.

intestinal tract of mice = assay: Protective effect of ISX on the intestinal tract of mice, TUNEL assay; format: in vivo; conditions: etoposide 20 mg/kg intraperitoneally, ISX 20 mg/kg orally
Description: 6-8 week-old wild-type B6 mice were randomly divided into two groups. One group was intraperitoneally injected with chemotherapeutic drug etoposide (20 mg/kg), and then orally administered a cosolvent (5% DMSO+0.5% Tween 80+0.5% CMC-Na) (5 mL/kg); another group was intraperitoneally injected with chemotherapeutic drug etoposide (20 mg/kg), and then orally administered ISX dissolved in a cosolvent (20 mg/kg). The mice were sacrificed 3 hours later, and the intestinal tissues were fixed, followed by TUNEL staining assay.

[5] = system: small intestinal organoids in mice; assay: Protection of ISX on injury of mouse small intestinal organoids caused by 5-FU, immunofluorescence staining (cleaved caspase-3); conditions: 5-FU 50 uM alone, 4 hours of treatment; FIG. 1
Excerpt: as §1, §2

human colon organoids = assay: Protection of ISX on human colon organoids, bright field and live cells/dead cells double staining; conditions: 5-FU 20 uM alone
Description: Calcein-AM/PI Live Cells/Dead Cells Double Staining Assay
Calcein-AM can permeate the cell membrane, and the esterase in living cells can remove its AM group to produce calcein and emit fluorescence. PI (propidium iodide) cannot pass through the intact cell membrane, and only after the cell membrane is damaged and the permeability changes, PI can enter the cell to combine with DNA and emit fluorescence. Therefore, Calcein-AM/PI can be a label for distinguishing the live or dead cells.
Colon tissues were isolated from normal human tissue to perform organoid culture, after the culture was stable, performing subculture to continue the culture for 3-5 days. The culture was dividing into 4 groups: a control group of adding DMSO alone (DMSO group); a group of adding chemotherapy drug 5-fluorouracil (5-FU, 20 uM) alone (5-FU group); a group of adding ISX (10 uM) alone (ISX group); and a group of adding 5-FU (50 uM) and ISX (25 uM) simultaneously (5-FU+ISX group).
The signal generated by PI in the fluorescence image represents dead cells, and the signal generated by Calcein-AM represents living cells.

[6] = system: small intestinal organoids in mice; assay: Comparative experiment on the protective effects of PD332991, CHIR99021 and ISX on intestinal organoids; conditions: then 4 days of culture, FIG. 13
Excerpt: as §1
In this example, PD0332991 and CHIR99021 were used as reference compounds to evaluate the protective effect of the compounds of the present application on intestinal organoids.
After treatment, all compound treatments were terminated, and the organoids were washed 3 times with PBS, then culturing in fresh medium.

[7] = 5-FU 50 uM + ISX 25 uM, 8 hours of treatment, FIG. 2
[8] = etoposide 50 uM + ISX 25 uM, 8 hours of treatment, FIG. 6

COc1cc([C@@H]2c3cc4c(cc3[C@@H](O[C@@H]3O[C@@H]5CO[C@@H](C)O[C@H]5[C@H](O)[C@H]3O)[C@H]3COC(=O)[C@H]23)OCO4)cc(OC)c1O [Eto, etoposide, reference compound]
biomass (bright field), Eto group compared with DMSO group ([1]; etoposide 50 uM alone, 8 hours of treatment, FIG. 6): significantly reduced

O=C(NC1CC1)c1cc(-c2cccs2)on1 [ISX]
biomass (bright field), 5-FU+ISX group compared with the 5-FU group [2, 7]: significantly increased
number of living cells (Calcein-AM), 5-FU+ISX group vs 5-FU group [2, 7]: significantly more
number of surviving crypt structures in each organoid, 5-FU+ISX group vs 5-FU group ([2]; 5-FU 50 uM + ISX 25 uM, 8 hours, p<0.01, FIG. 3): significant difference
cell death (cleaved caspase-3 signal) caused by etoposide [3]: significantly reduce the cell death
cell death caused by etoposide (Western blotting) [4]: significantly reduce the cell death
biomass (bright field), Eto+ISX group compared with the Eto group [1, 8]: significantly increased
number of living cells (Calcein-AM), Eto+ISX group vs Eto group [1, 8]: significantly more
number of surviving crypt structures in each organoid, Eto+ISX group vs Eto group ([1]; etoposide 50 uM + ISX 25 uM, 8 hours, p<0.01, FIG. 7): significant difference
number of TUNEL signals in each crypt, ISX group vs cosolvent group (intestinal tract of mice; 3 hours, p<0.01, FIG. 12): significant difference
TUNEL signal, orally administered ISX group vs cosolvent group (intestinal tract of mice; sacrificed 3 hours later, FIG. 11): significantly lower

O=c1[nH]cc(F)c(=O)[nH]1 [5-FU, 5-fluorouracil]
dead cells (cleaved caspase-3 signal), 5-FU group vs DMSO group [5]: significantly higher
biomass (bright field), 5-FU group compared with DMSO group ([2]; 5-FU 50 uM alone, 8 hours of treatment, FIG. 2): significantly reduced
number of crypt structures, 5-FU group vs DMSO group (human colon organoids; 48 hours of treatment, p<0.01, FIGS. 8-9): significantly reduced
dead cells (PI), 5-FU group compared with DMSO group (human colon organoids; culture until day 5, FIG. 10): increased significantly

Cc1c[nH]c(-c2cnc(NCCNc3ccc(C#N)cn3)nc2-c2ccc(Cl)cc2Cl)n1 [CHIR99021]
protection of small intestinal organoids against 5-FU (live cells/dead cells double staining) ([6]; 5-FU 25 uM + CHIR99021 10 uM): cannot protect small intestinal organoids

CC(=O)c1c(C)c2cnc(Nc3ccc(N4CCNCC4)cn3)nc2n(C2CCCC2)c1=O [PD332991]
protection of small intestinal organoids against 5-FU (live cells/dead cells double staining) ([6]; 5-FU 25 uM + PD0332991 100 nM): cannot protect small intestinal organoids
